These results are taken from patent US20260191815A1, “THIOACRYLAMIDE DERIVATIVES FOR USE IN THE PREVENTION OR TREATMENT OF LIVER FIBROSIS” (CMR CUREDIAB METABOLIC RESEARCH GMBH, priority 2022, published 2026).

The test system of experiment [1] is alpha-1 type 1 collagen (COL1A1) protein in LX2 cells. As to the kind of experiment: Simple Western of COL1A1 protein in TGF-β1-stimulated LX2 hepatic stellate cells. The format is cell-based, human. Particulars: for upregulation of COL1A1 in TGF-β1-treated LX2 cells: 10 μM, 30 min pretreatment, then 5 ng/ml TGF-β1 for 24 h; for protein abundance of COL1A1: sole treatment 10 μM for 24 h, LX2 cells, no TGF-β1. As to the method: (§1) The human hepatic stellate cell line LX2 was purchased from Merck. The cells were used up to passage ten and incubated under sterile conditions at 37° C. and 5% CO2. The cells were cultivated in medium containing Dulbecco's Modified Eagle's Medium with 4.5 g/l glucose (ThermoFisher), 4 mmol/l glutamine (ThermoFisher), 2% fetal bovine serum (FBS) (Merck), 100 U/ml penicillin and 100 μg/ml streptomycin (Merck). After 2 days, LX2 cells were starved for FBS for 24 h and then pretreated with 10 μM HK1 (Taros Chemicals GmbH & Co. KG) or 10 μM HK3 (Taros Chemicals GmbH & Co. KG) for 30 min. Subsequently, 5 ng/ml recombinant TGF-β1 (R&D Systems, Minneapolis, MN, USA) was added to the hepatic stellate cell cultures for 24 h. LX2 cells were also incubated with 5 ng/ml TGF-β1 alone as positive control for the hepatic stellate cell activation. Recombinant TGF-β1 was dissolved in sterile 4 mmol/l HCl (Merck) containing 0.1% bovine serum albumin (Roth Karlsruhe, Germany) as carrier protein. HK1 and HK3 were dissolved in sterile dimethyl sulfoxide (DMSO) (Sigma-Aldrich, Munich, Germany). Stimulations with 10 μM HK1, 10 μM HK3 and the corresponding vehicles (HCl and DMSO with or without HCl) alone for 24 h were also included as treatments.
(§2) For the measurement of the pro-fibrotic proteins, Western Blotting was performed. Proteins were extracted from whole cell lysate of LX2 cells using RIPA lysis buffer containing 50 mmol/l Tris-HCl (pH 8.0), 150 mmol/l NaCl, 1% IGEPAL® CA-630, 0.5% sodium deoxycholate, 0.1% sodium dodecyl sulfate, 10% PhosSTOP Phosphatase Inhibitor Cocktail (Roche, Basel, Switzerland) and 10% cOmplete Mini Protease Inhibitor Cocktail (Roche). Lysates were centrifuged at 14850×g for 15 min at 4° C. Then, the total protein content of the lysates was determined using a bicinchoninic acid protein assay (ThermoFisher Scientific) in accordance with the manufacturer's instructions. The quantification of protein abundance was performed by Simple Western size-based assays using a 12-230 kDa and 66-440 kDa Separation Module (ProteinSimple, San Jose, CA, USA) according to the manufacturer's instructions. This fully automated Western blotting system is based on a capillary electrophoresis technology. The separation, immobilization to the capillary wall via a proprietary, photoactivated capture chemistry and immunodetection of the proteins using a horseradish peroxidase (HRP)-conjugated secondary antibody and chemiluminescent substrate take place directly in the capillary without gel separation and transfer steps to blotting paper. The chemiluminescence is measured at multiple exposure times and automatically quantified by the Compass for Simple Western software (version 4.1.0) (ProteinSimple). The chemiluminescent signal for immunodetected proteins, which can be represented as an electropherogram or virtual blot-like image, is automatically quantified by calculation of the area under the curve of the peak.
(§3) The software reports the molecular weight, the area (in an arbitrary unit and in percent) and signal to noise ratio for each protein detected. The primary antibodies for the recognition of endogenous levels of total alpha-1 type 1 collagen (COL1A1) protein (#72026) and total fibronectin 1 (FN1) protein (#26836) were purchased from Cell Signaling Technology (Danvers, MA, USA). The anti-rabbit HRP-linked secondary antibody was from ProteinSimple. […]
(§4) Differences were analysed by one-way ANOVA followed by the Tukey method as correction for multiple testing.

Experiment [2] concerns fibronectin 1 (FN1) protein in LX2 cells. As to the kind of experiment: Simple Western of FN1 protein in TGF-β1-stimulated LX2 hepatic stellate cells. The format is cell-based, human. Particulars: for upregulation of FN1 in TGF-β1-treated LX2 cells: 10 μM, 30 min pretreatment, then 5 ng/ml TGF-β1 for 24 h; for protein abundance of FN1: sole treatment 10 μM for 24 h, LX2 cells, no TGF-β1. As to the method: as §1, §2, §3, §4

The test system of experiment [3] is caspase 3/7 activity in HepG2 cells. The experiment is described as follows: Caspase 3/7 activity provoked by palmitate in HepG2 cells. The format is cell-based. Particulars: for reduction of the caspase 3/7 activity provoked by palmitate, compared among thioacrylamide derivatives: 100 nM + palmitate 200 μM, n=4; for activity at 10 µM: Homo sapiens, 10 μM pre-treatment 30 min + palmitate 200 μM, 24 h, read-out: caspase 3/7 activity, % of control. As to the method: The potential protective effect of HK1 and HK3 on caspase 3/7 activity in HepG2 cells and primary human hepatocytes was analysed.
HepG2 cells were obtained from Merck (Darmstadt, Germany) (ECACC-certified), while primary human hepatocytes were obtained from Thermo Fisher Scientific (Waltham, MA, USA), and all were cultured according to the instructions of the respective manufacturers. During experiments, cells were cultured in serum-free medium. Unless otherwise stated, cells were treated with 200 μM bovine serum albumin (BSA)-conjugated palmitate (Cayman Chemicals, Ann Arbor, MI) alone or in combination with 10 μM HK1 (Taros Chemicals GmbH & Co. KG, Dortmund, Germany) and HK3 (Taros Chemicals GmbH & Co. KG, Dortmund, Germany) 30 min prior to palmitate exposure for 24 hours. The vehicle BSA was used according to the palmitate concentration and DMSO according to HK1 and HK3 concentration. 2 μM Staurosporine (Abcam, Cambridge, GB) was used as a positive and 100 μM Caspase 3/7 inhibitor (CI) (Cayman Chemicals) as a negative control.
Differences were analysed by one-way ANOVA.
A hepatoprotective effect was determined as described in Example 4. A treatment was performed with HK1, HK2, HK3, HK4 or HK5 (100 nM) either alone or in combination with palmitate (200 μM).
Differences were analysed by one-way ANOVA, n=4.

SMILES strings stand for the structures.

Turning to `Cc1cc(NC(=S)/C(C#N)=C(\O)C2CC2)ccc1[N+](=O)[O-]` [HK3, 2-Cyano-3-cyclopropyl-3-hydroxy-N-(3-methyl-4-nitro-phenyl)-thioacrylamide], in experiment [1], the “upregulation of COL1A1 in TGF-β1-treated LX2 cells” value is recorded as “completely suppressed” and the “protein abundance of COL1A1” value is listed as “no impact”. Moreover, in experiment [2], the “upregulation of FN1 in TGF-β1-treated LX2 cells” value was “completely suppressed” and the “protein abundance of FN1” value is given as “no impact”. Moreover, in experiment [3], the “reduction of the caspase 3/7 activity provoked by palmitate, compared among thioacrylamide derivatives” value is “strongest reduction” and the activity at 10 µM is 42.3%.

For `Cc1cc(NC(=S)/C(C#N)=C(\O)C2CC2)ccc1F` [HK1, 2-Cyano-3-cyclopropyl-N-(4-fluoro-3-methyl-phenyl)-3-hydroxy-thioacrylamide], in experiment [1], the “upregulation of COL1A1 in TGF-β1-treated LX2 cells” value is “completely suppressed” and the “protein abundance of COL1A1” value is reported as “no impact”. In experiment [2], the “upregulation of FN1 in TGF-β1-treated LX2 cells” value is “completely suppressed” and the “protein abundance of FN1” value is “no impact”. Besides, in experiment [3], the “reduction of the caspase 3/7 activity provoked by palmitate, compared among thioacrylamide derivatives” value is recorded as “stronger reduction” and the activity at 10 µM is 263%.
